Numbers after ± are expanded uncertainties.
Experiment: mn = molality of the nth substance listed, in mol/kg
Settings: 101 kPa, Liquid; for speed of sound: Pulse-echo method; for mass density: Vibrating tube method

CCCC(N)C(=O)O (stereo not drawn) [DL-2-aminopentanoic acid] + O
Settings	mass density, 288.15 K [kg/m3]	mass density, 298.15 K [kg/m3]	mass density, 308.15 K [kg/m3]	mass density, 318.15 K [kg/m3]	speed of sound, 288.15 K [m/s]	speed of sound, 298.15 K [m/s]	speed of sound, 308.15 K [m/s]	speed of sound, 318.15 K [m/s]
m1 = 0.04497	1000.31 ± 0.041	998.222 ± 0.043	995.183 ± 0.045	991.346 ± 0.048	1471.3 ± 0.78	1501.2 ± 0.78	1523.8 ± 0.77	1540 ± 0.77
m1 = 0.05999	1000.71 ± 0.041	998.611 ± 0.042	995.564 ± 0.045	991.721 ± 0.048	1473 ± 0.78	1502.7 ± 0.78	1525.1 ± 0.77	1541.2 ± 0.77
m1 = 0.07998	1001.24 ± 0.042	999.126 ± 0.042	996.069 ± 0.045	992.218 ± 0.048	1475.1 ± 0.78	1504.6 ± 0.78	1526.9 ± 0.77	1542.8 ± 0.77
m1 = 0.09499	1001.63 ± 0.042	999.511 ± 0.042	996.447 ± 0.045	992.59 ± 0.047	1476.7 ± 0.78	1506.1 ± 0.78	1528.2 ± 0.77	1544 ± 0.77
m1 = 0.11	1002.03 ± 0.042	999.895 ± 0.042	996.823 ± 0.045	992.961 ± 0.047	1478.3 ± 0.78	1507.5 ± 0.78	1529.6 ± 0.77	1545.2 ± 0.77
m1 = 0.125	1002.42 ± 0.042	1000.28 ± 0.042	997.197 ± 0.045	993.329 ± 0.047	1479.9 ± 0.78	1509 ± 0.78	1530.9 ± 0.77	1546.4 ± 0.77
m1 = 0.14	1002.81 ± 0.043	1000.66 ± 0.042	997.57 ± 0.044	993.697 ± 0.047	1481.5 ± 0.78	1510.4 ± 0.78	1532.2 ± 0.77	1547.6 ± 0.77
m1 = 0.155	1003.2 ± 0.043	1001.04 ± 0.042	997.943 ± 0.044	994.064 ± 0.047	1483.1 ± 0.78	1511.9 ± 0.78	1533.5 ± 0.77	1548.8 ± 0.77
m1 = 0.17	1003.59 ± 0.043	1001.42 ± 0.043	998.314 ± 0.044	994.429 ± 0.047	1484.6 ± 0.78	1513.3 ± 0.78	1534.8 ± 0.77	1550 ± 0.77
m1 = 0.185	1003.98 ± 0.043	1001.79 ± 0.043	998.684 ± 0.044	994.793 ± 0.047	1486.2 ± 0.78	1514.7 ± 0.78	1536.2 ± 0.77	1551.2 ± 0.77
m1 = 0.2	1004.36 ± 0.044	1002.17 ± 0.043	999.053 ± 0.044	995.156 ± 0.047	1487.8 ± 0.78	1516.1 ± 0.78	1537.5 ± 0.77	1552.4 ± 0.77

CC(N)C(=O)O (stereo not drawn) [DL-2-aminopropanoic acid] + O
Settings	mass density, 288.15 K [kg/m3]	mass density, 298.15 K [kg/m3]	mass density, 308.15 K [kg/m3]	mass density, 318.15 K [kg/m3]	speed of sound, 288.15 K [m/s]	speed of sound, 298.15 K [m/s]	speed of sound, 308.15 K [m/s]	speed of sound, 318.15 K [m/s]
m1 = 0.04994	1000.59 ± 0.041	998.501 ± 0.043	995.455 ± 0.045	991.617 ± 0.048	1469.9 ± 0.78	1500 ± 0.78	1522.8 ± 0.77	1539.1 ± 0.77
m1 = 0.1499	1003.53 ± 0.043	1001.37 ± 0.043	998.271 ± 0.044	994.396 ± 0.047	1476.9 ± 0.79	1506.5 ± 0.78	1528.8 ± 0.77	1544.8 ± 0.77
m1 = 0.2597	1006.7 ± 0.045	1004.46 ± 0.044	1001.3 ± 0.044	997.395 ± 0.046	1484.5 ± 0.79	1513.5 ± 0.78	1535.4 ± 0.77	1551 ± 0.77
m1 = 0.4797	1012.86 ± 0.048	1010.48 ± 0.048	1007.21 ± 0.047	1003.23 ± 0.046	1499.3 ± 0.79	1527.4 ± 0.79	1548.3 ± 0.78	1563.2 ± 0.78
m1 = 0.6994	1018.78 ± 0.052	1016.26 ± 0.051	1012.89 ± 0.051	1008.84 ± 0.05	1513.8 ± 0.79	1540.8 ± 0.79	1560.9 ± 0.78	1575 ± 0.78
m1 = 0.9199	1024.51 ± 0.055	1021.85 ± 0.055	1018.39 ± 0.054	1014.26 ± 0.053	1528 ± 0.8	1553.9 ± 0.79	1573.2 ± 0.79	1586.5 ± 0.79
m1 = 1.138	1029.97 ± 0.059	1027.2 ± 0.058	1023.64 ± 0.057	1019.43 ± 0.056	1541.7 ± 0.8	1566.6 ± 0.8	1585 ± 0.79	1597.7 ± 0.79
m1 = 1.36	1035.33 ± 0.063	1032.43 ± 0.062	1028.77 ± 0.061	1024.51 ± 0.06	1555.1 ± 0.8	1579.1 ± 0.8	1596.7 ± 0.8	1608.7 ± 0.8
m1 = 1.577	1040.37 ± 0.066	1037.36 ± 0.065	1033.63 ± 0.064	1029.29 ± 0.063	1568 ± 0.81	1591 ± 0.81	1607.8 ± 0.8	1619.2 ± 0.8
m1 = 1.799	1045.37 ± 0.07	1042.26 ± 0.069	1038.42 ± 0.068	1034.03 ± 0.066	1580.7 ± 0.81	1602.7 ± 0.81	1618.9 ± 0.81	1629.5 ± 0.81
